Assay results taken from article PMC4861662 (ChemMedChem, 2016).
Where two headings read alike, the source gives them in different places.

Experiments:
[1] = container M2, ref [20a],[21a], cited from earlier work; for Initial slope of the PSD: 20 mM sodium phosphate buffered D2O, pD 7.4, rt; for Krel: referenced to the weakest binding container (generally HP-β-CD), TL = too large to be determined because slope ≈ 1
Phase solubility diagram [2] = conditions: container M2
Phase solubility diagram [3] = conditions: for Highest drug concentration achieved with container / Initial slope of the PSD / Krel / Ka of container•drug complex: container M2C2; for Initial slope of the PSD: 20 mM sodium phosphate buffered D2O, pD 7.4, rt; for Krel: referenced to the weakest binding container (generally HP-β-CD); for Ka of container•drug complex: from PSD slope and S0 (equation 1)
Phase solubility diagram [4] = conditions: for Highest drug concentration achieved with container / Initial slope of the PSD / Ka of container•drug complex: container SBE-β-CD; for Initial slope of the PSD: 20 mM sodium phosphate buffered D2O, pD 7.4, rt; for Ka of container•drug complex: from PSD slope and S0 (equation 1)
[5] = container HP-β-CD; from PSD slope and S0 (equation 1); ref [20a],[21a]; cited from earlier work
Phase solubility diagram [6] = conditions: for Initial slope of the PSD / Ka of container•drug complex / Krel: container M2C4; for Initial slope of the PSD: 20 mM sodium phosphate buffered D2O, pD 7.4, rt, Gel = gel formed; for Ka of container•drug complex: from PSD slope and S0 (equation 1); for Krel: referenced to the weakest binding container (generally HP-β-CD)
[7] = Inherent solubility of the drug; conditions: 20 mM sodium phosphate buffered D2O, pD 7.4, rt
[8] = Inherent solubility of container by 1H NMR assay of saturated solution; type: physicochemical; conditions: SBE-β-CD

Row | Compound | Initial slope of the PSD [1] | Krel [1] | Highest drug concentration achieved with container (Phase solubility diagram [2]) [mM] | Highest drug concentration achieved with container (Phase solubility diagram [3]) [mM] | Initial slope of the PSD (Phase solubility diagram [3]) | Krel (Phase solubility diagram [3]) | Highest drug concentration achieved with container (Phase solubility diagram [4]) [mM] | Initial slope of the PSD (Phase solubility diagram [4]) | Ka of container•drug complex [5] [M⁻¹] | Ka of container•drug complex (Phase solubility diagram [3]) [M⁻¹] | Ka of container•drug complex (Phase solubility diagram [4]) [M⁻¹] | concentration of M2C4 above which gels form with drug (Phase solubility diagram [6]; M2C4 used as solubilizing agent) | Initial slope of the PSD (Phase solubility diagram [6]) | Ka of container•drug complex (Phase solubility diagram [6]) [M⁻¹] | Krel (Phase solubility diagram [6]) | S0, inherent solubility of the drug [7] [mM] | gel formation (Phase solubility diagram [3]; 68 mM container M2C2) | gel formation (Phase solubility diagram [6]; 68 mM container M2C4) | inherent solubility of container [8] [mM] | average Krel relative to HP-β-CD (Phase solubility diagram [4]; SBE-β-CD versus HP-β-CD, averaged over drugs of the test set)
1 | COc1cc2c(cc1O)CC[C@@H]1[C@@H]2CC[C@]2(C)[C@@H](O)CC[C@@H]12 [2-Methoxy estradiol] | 0.79 | 47/– | 6.42 | 34.1 | 0.49 | 12/– | 35.9 | 0.21 |  |  |  |  |  |  |  |  |  |  |  | 
2 | CCCSc1ccc2nc(NC(=O)OC)[nH]c2c1 [Albendazole] | 0.48 | 62 | 4.48 | 2.78 | 0.035 | 2.4 | 3.94 | 0.027 | 5400 | 14000 | 11000 |  |  |  |  |  |  |  |  | 
3 | CCCCc1oc2ccccc2c1C(=O)c1cc(I)c(OCCN(CC)CC)c(I)c1 [Amiodarone] | 1.03 |  |  |  | 0.65 | 19 |  | 0.60 | 1500 | 28000 | 23000 | greater than 16 mM |  |  |  |  |  |  |  | 
4 | O=C1CCc2ccc(OCCCCN3CCN(c4cccc(Cl)c4Cl)CC3)cc2N1 [Aripiprazole] | 0.31 | 8.8 | 3.20 | 9.26 | 0.28 | 7.7 | 8.44 | 0.048 |  | 17000 | 2200 |  |  |  |  |  |  |  |  | 
5 | CC[C@@]1(O)C(=O)OCc2c1cc1n(c2=O)Cc2cc3ccccc3nc2-1 [Camptothecin] | 1.1 |  | 11.6 | 28.3 | 0.41 | 1 | 0 | 0 |  | 13000 |  |  |  |  |  |  |  |  |  | 
6 | C(=C\c1ccccc1)/CN1CCN(C(c2ccccc2)c2ccccc2)CC1 [Cinnarizine] |  |  |  |  | 0.26 | 170 |  | 0.008 |  | 25000 | 580 |  |  |  |  |  |  |  |  | 
7 | C[C@]12CC[C@@H]3c4ccc(O)cc4CC[C@H]3[C@@H]1CC[C@@H]2O [Estradiol] | 0.92 | 51 |  |  | 0.67 | 9.1 |  | 0.59 | 26000 | 230000 | 170000 |  | 0.59 | 160000 | 6.5 |  |  |  |  | 
8 | C#C[C@]1(O)CC[C@H]2[C@@H]3CCc4cc(O)ccc4[C@H]3CC[C@@]21C [Ethynyl Estradiol] | 1.1 |  | 10.5 | 33.6 |  |  | 131 |  | 36000 |  |  |  |  |  |  |  |  |  |  | 
9 | COc1ccc2c(c1)c(CC(=O)O)c(C)n2C(=O)c1ccc(Cl)cc1 [Indomethacin] | 0.47 | 67 | 6.70 | 6.69 | 0.13 | 11 | 9.92 | 0.23 | 2400 | 25000 | 51000 |  |  |  |  |  |  |  |  | 
10 | N[C@@H](Cc1ccc(N(CCCl)CCCl)cc1)C(=O)O [Melphalan] | 1.1 |  | 16.1 | 38.2 | 0.43 | 6.0/– | 87.8 | 0.50 |  |  |  |  |  |  |  |  |  |  |  | 
11 | O=C(NC1=CC(=O)[C@H]2O[C@H]2[C@H]1O)c1cc2ccccc2[nH]c1=O [PBS-1086] | 0.89 | 3.5 | 12.5 | 16.5 | 0.70 | 1 | 0 | 0 |  | 510000 |  |  |  |  |  | 0.0045 |  |  |  | 
12 | CC/C(=C(\c1ccccc1)c1ccc(OCCN(C)C)cc1)c1ccccc1 [Tamoxifen] | 0.10 | 3.9 |  |  |  |  |  |  | 2400 |  |  |  |  |  |  |  |  |  |  | 
13 | Cc1c(Cl)cccc1Nc1ccccc1C(=O)O [Tolfenamic acid] | 0.54 | 150 | 5.6 | 6.79 | 0.11 | 16 | 8.07 | 0.11 | 4100 | 66000 | 64000 |  |  |  |  |  |  |  |  | 
14 | C[C@@H](c1ncncc1F)[C@](O)(Cn1cncn1)c1ccc(F)cc1F [Voriconazole] |  |  | 9.23 | 61.9 | 0.89 | 29 | 94.7 | 0.53 |  | 210000 | 30000 |  | 0.85 | 140000 | 19 |  | no evidence of gel formation | no evidence of gel formation |  | 
15 | sulfobutylether-β-cyclodextrin [SBE-β-CD] |  |  |  |  |  |  |  |  |  |  |  |  |  |  |  |  |  |  | > 175 | 12
